What was measured:
C43 [1] = assay: shRNA effect on endogenous C43 expression, real time RT PCR in MDA-MB-435 cells; type: cell-based, human; details: retroviral shRNA delivery
Description: A) Overexpresison of C43 enhanced cell migration. COS-1 cells and MCF-7 cells transfected with vector control (1 & 4), C43 (2 & 5) or MT1-MMP (3 & 6, positive control) cDNAs were evaluated by a Transwell Chamber migration assay after 6 hours. The cells were fixed and migratory cells were counted under microscopy with 20× objective. Ten fields were examined for each transfected cells. Each bar represents the mean±SE. B) Enhanced cell migration in MCF-7 cells expressing C43-GFP chimera. Minimally invasive human breast cancer MCF-7 cells stably transfected with GFP control and C43-GFP chimeric cDNA were mixed with type I collagen and dotted onto a 96-well plate. […] Cell migration was determined under microscopy. […]
Small interfering oligonucleotides specific for either C43 or luciferase (control) to express short hairpin RNA (shRNA) were designed using an online software system (Block-iT RNAi Designer; Invitrogen) for mammalian RNA interference. Specific 21-nucleotide sequences spanning nucleotides […] of the human C43 gene (see FIG. 2: SEQ ID NO: 1) and nucleotides 103-123 of luciferase from firefly Pyrocoelia pectoralis as a control were synthesized by Operon Biotechnologies, Inc. Annealed double stranded oligonucleotides were cloned into the RNAi-Ready pSIREN-Retra Q vector (Clontech). […]

MDA-MB-435 cells [2] = assay: 3D invasion assay, MDA-MB-435 cells expressing shRNA; type: cell-based, human; details: 3D invasion assay after 8 days, vs Luciferase shRNA control
Excerpt: (§1) Left panel: Loss of invasive ability of MDA-MB-435 cells by downregulation of C43. MDA-MB-435 cells expressing Luciferase shRNA control, C43 shRNA-2 and -3 were examined by the 3D invasion assay after 8 days. […] MDA-MB-435 cells expressing Luciferase shRNA shRNA, C43 shRNA-2 and -3 cultured on plastic dishes were observed under inverted microscopy with differential interference contrast (DIC).
The following methodology permits the detection of cancer cell invasion into a collagen matrix and the inhibitory activity of anti-cancer drugs. This assay is useful in identifying pharmacologic agents (drugs) that interfere with cancer progression. […] Invading cancer cells leaving the perimeter of the original collagen droplet are readily visualized extending into the surrounding collagen matrix after 18 h incubation. Both qualitative and quantitative analyses are performed microscopically. The invasive ability of cancer cells (cells outside the original droplet), as well as the effect of pharmacologic agents on the cancer cell invasion, can be determined microscopically. The effect of pharmacologic agents on invasion of cancer cells is determined by counting invading cells in the presence versus the absence of pharmacologic agents. […] This assay will be readily adaptable for high throughput screening of libraries of compounds that may be useful for cancer treatment. […]

MDA-MB-435 cells [3] = assay: cell proliferation of MDA-MB-435 cells expressing shRNA; type: cell-based, human; details: MDA-MB-435 cells in culture
Excerpt: as §1
(§2) As summarized in FIG. 1, 2×10^6 MDA-MB-435 cancer cells expressing either C43 shRNA or luciferase shRNA control were orthotopically injected into mammary tissue of nu/nu immunodeficient mice. Tumor growth was measured with calipers twice a week. Tumor size was determined using the formula: (tumor size=tumor diameter(×)square root of tumor diameter(÷)2). […] In contrast to in vivo tumor growth, downregulation of C43 had no effect on cancer MDA-MB-435 cell proliferation in tissue culture (not shown), emphasizing the unique role of C43 on protease-independent aspects of cell invasion and tumor progression.

MDA-MB-435 cells [4] = assay: cell morphology of MDA-MB-435 cells expressing shRNA (DIC microscopy); type: cell-based, human; details: MDA-MB-435 cells cultured on plastic dishes
Excerpt: as §1

MDA-MB-435 cancer cells = assay: orthotopic implantation of MDA-MB-435 cells expressing shRNA into immunodeficient mice; type: in vivo, nu/nu immunodeficient mice
Excerpt: FIG. 1 depicts tumor growth and survival curves comparing the effect of C43 shRNA (SEQ ID NO: 2) (FIG. 1A) and control luciferase shRNA (FIG. 1B) on tumor appearance, progression, and survival following orthotopic implantation of MDA-MB-435 breast cancer cells into immunodeficient mice.
as §2

[5] = system: human breast cancer MDA-MB-231 cells; assay: 3D invasion assay with well-established inhibitory compounds; type: cell-based; details: data not shown
Excerpt: To increase the throughput as well as to standardize and automate the readout using imaging software, we have designed and tooled a 96-well plate with a 2.1 mm3 pit in the center of each well. This tooled plate restricts the cell/matrix mixture to an identical pit (size and location) within each well, thus permitting automated microscopic imaging of cell invasion (FIG. 19). To test if imaging acquisition and data analysis can be automated, we have employed a motorized stage (Prior Scientific, Inc.) installed on the existing Nikon TE2000s inverted microscope. The automated microscopy system is controlled by the NIS-Elements imaging software (Nikon) for imaging acquisition and data analysis. Using a 10× objective, we have shown that it takes 6 minutes to scan the entire 96 well plate. To quantitatively analyze cells that invade into the matrix, using both phase contrast and nuclear-stained images is optimal.
To establish the efficacy of the assay for screening libraries, we have tested the effect of well-established inhibitory compounds on cell invasion. […] Moreover, this 3D invasion assay is simple, precise, easy to replicate, and has multiple applications.

[6] = system: HT1080 and/or human breast cancer MDA-MB-231 cell; assay: 3D invasion assay, positive controls; type: cell-based; details: positive controls in culture medium, HT1080 and/or MDA-MB-231 cells
Description: HT1080 cells and/or human breast cancer MDA-MB-231 cells (4×10^7/ml) mixed with type I collagen (1.5 mg/ml at final) are dispensed into the cell-holding wells in invasion assay plates (2 ul/well, optimum volume) using the liquid handling system at 4° C. working temperature to prevent the collagen from solidifying within the liquid handling system. After dotting, the plate is inserted in an incubator chamber at 37° C. for 15 min followed by the addition of type I collagen to cover the gelled cell aggregates. […] Images are acquired from transmission (phase contrast) and fluorescence (DAPI) sources by an external light shutter device that gathers two images per time point in time-lapse sequences. […] Data analysis will be performed using NIS-Element imaging software (Nikon) based on pre-determined criteria.
The following steps will be performed to screen the compound library targeting cancer cell migration/invasion using the automated 3D invasion HTS system: 1) Cell plating: HT1080 cells and/or human breast cancer MDA-MB-231 cells are used for selecting inhibitory compounds because these cells display invasive ability and represent mesenchymal cancer cells. […] Images acquired by an automated Nikon inverted microscope (TE2000s) equipped with a motorized stage (Prior Scientific) are then analyzed using the NIS-Elements software (Nikon). […]

C43 [7] = assay: Northern blot analysis of C43 in HT1080 cells; type: cell-based, human; details: FIG. 11A
Excerpt: Total RNAs of MCF-7 cells, HT1080 or HT1080 cells treated with Con A were probed with p^32-labeled C43 probe. A single 9.5 kb mRNA transcript corresponding to C43 was detected (arrowhead). Con A enhances C43 expression in HT1080 cells. B) Expression of C43 in transfected COS-1 cells: COS-1 cells transfected with vector or C43-Myc chimera were examined by Western blotting using anti-Myc antibody. C43 was detected as a 150 kDa protein band along with degradation products.

C43 [8] = assay: C43 expression by real time RT PCR in MCF-7 cells; type: cell-based, human; details: MCF-7 cells treated vs untreated, FIG. 17A
Description: (§3) MCF-7 cells were left untreated or treated with an inhibitor of DNA methyltransferase, […] (5-aza-dC). Expression of C43 was monitored by a real time RT PCR approach and cell migration ability was determined by a transwell chamber migration assay.

MCF-7 cells = assay: transwell chamber migration assay, MCF-7 cells; type: cell-based, human; details: FIG. 17B
Description: as §3

C43 [9] = assay: C43 expression by real time RT PCR in MDA-MB-231 cells; type: cell-based, human
MDA-MB-231 cells = assay: transwell chamber migration assay, MDA-MB-231 cells; type: cell-based, human

| Molecule | endogenous C43 expression (C43 [1]) | cell invasive ability (MDA-MB-435 cells [2]) | cell proliferation (MDA-MB-435 cells [3]) | cell morphology (MDA-MB-435 cells [4]) | further results |
| --- | --- | --- | --- | --- | --- |
| C43 shRNA-3: C43 shRNA sequence GCCTCTCCATCCATCATACATT, nt 1997 | significantly decrease | loss of cell invasive ability | does not alter | Change of cell morphology | – |
| C43 shRNA: 21-nucleotide C43 shRNA CCTCTCCATCCATCATACATT spanning nucleotides 1735-1757 of SEQ ID NO: 1 (chemistry not given here; listed as Homo sapiens) | – | – | no effect | – | tumor appearance and progression (MDA-MB-435 cancer cells; 2×10^6 MDA-MB-435 cells orthotopically injected into mammary tissue, vs luciferase shRNA control, FIG. 1A): delayed; survival (MDA-MB-435 cancer cells; orthotopic MDA-MB-435, vs luciferase shRNA control mice, FIG. 1B): prolonged |
| COc1cccc(-c2cc(=O)c3ccccc3o2)c1N [PD98059] | – | – | – | – | inhibition of cell invasion [5]: dose-dependent inhibition; cell invasion [6]: block |
| Concanavalin A [Con A] | – | – | – | – | C43 expression (C43 [7]): enhances |
| C43 shRNA-2: C43 shRNA sequence GTGGAAGACCATATTGAATAT, nt 1104 | significantly decrease | loss of cell invasive ability | does not alter | Change of cell morphology | – |
| Nc1ncn([C@H]2C[C@H](O)[C@@H](CO)O2)c(=O)n1 [5-aza-dC, a-aza-deoxycytined] | – | – | – | – | endogenous C43 expression (C43 [8]): increased; cell migration (MCF-7 cells): enhanced; C43 expression (C43 [9]): No effect; cell migration (MDA-MB-231 cells): No effect |

From patent publication US8900851B2, “Multi-well platform” (The Research Foundation for the State University of New York, priority 2008, dated 2014)
